Reference: patent publication US20210113501A1, “METHOD OF ADMINISTERING BETA-HYDROXY-BETA-METHYLBUTYRATE (HMB)” (Metabolic Technologies, Inc., priority 2009, published 2021)

Test: Study 1 blood chemistry
Type: in vivo, human
Details: for Gamma-glutamyl: in U/L (unit assumed)
Protocol: Study 1 design. For study 1 the subjects reported to the laboratory in the morning following an overnight fast. Before ingestion of one of the supplemental treatments, a flexible sterile polyethylene catheter was inserted into a forearm vein using sterile procedures and a pre-ingestion blood sample was drawn. Subsequent blood samples were taken at 0, 2, 5, 10, 15, 25, 35, 45, 60, 90, 120 and 180 min after ingestion of the treatment. Plasma was separated and samples were stored frozen at −70° C. for analysis of HMB concentration. In addition, a portion of the pre-ingestion and 180 minute blood samples were used for measurements (LabCorp, Kansas City, Mo.) of glucose, uric acid, blood urea nitrogen (BUN), creatinine, sodium, potassium, chloride, carbon dioxide, phosphorous, protein, albumin, globulin, albumin:globulin ratio, total bilirubin, direct bilirubin, alkaline phosphatase, lactate dehydrogenase, aspartate aminotransferase (AST), alanine aminotransferase (ALT), gamma-glutamyl transpeptidase (GGT), iron binding capacity (TIBC), unsaturated iron binding capacity (UIBC), iron, iron saturation, total cholesterol, triglycerides, high density lipoprotein (HDL), low density lipoprotein (LDL), and cholesterol ratio. A complete blood count (CBC) was also performed before and after the 180 min treatment period. Subjects also completed a brief questionnaire to report any physical symptoms (such as nausea, headache, etc) they may have experienced during the experiment.
The data were analyzed using a crossover design with Proc GLM in SAS. (45) For the timed sampling of plasma HMB a repeated measures polynomial model was used. The model included subject, order, and treatment main effects and time by treatment interaction where appropriate. For other parameters Proc GLM was also used with subject, order, and treatment main effects and the p values are reported for the treatment main effect. Statistical significance was determined for p<0.05 and a trend was determined for 0.05<p<0.10.

[1] = After (180 min), listed as Free Acid Gel Swallow
[2] = Before to After, listed as Free Acid Gel Swallow
[3] = Before, listed as Free Acid Gel Swallow

CC(C)(O)CC(=O)O [HMB-Acid Gel Swallow, 3-hydroxy-3-methylbutyric acid]
Albumin (After (180 min)): 4.1 ± 0.2 g/dL | Direct Bilirubin (After (180 min)): 0.1 ± 0.01 mg/dL | A:G Ratio [1]: 1.9 ± 0.1 | Alanine Aminotransferase [1]: 15.6 ± 1.3 IU/L | Alkaline Phosphatase [1]: 64.4 ± 6.7 IU/L | Aspartate Aminotransferase [1]: 23.1 ± 2.0 IU/L | Blood Urea Nitrogen [1]: 14.4 ± 1.5 mg/dL | CO2 [1]: 24.3 ± 0.5 mEq/L | Chloride [1]: 103.3 ± 0.5 mEq/L | Cholesterol Ratio [1]: 3.3 ± 0.3 | Creatinine [1]: 0.9 ± 0.1 mg/dL | Globulin [1]: 2.2 ± 0.1 g/dL | Glucose [1]: 73.3 ± 4.1 mg/dL | HDL [1]: 48.5 ± 3.7 mg/dL | Iron [1]: 96.3 ± 17.3 µg/dL | Iron Binding Capacity [1]: 333.4 ± 35.2 µg/dL | Iron Saturation [1]: 33.5 ± 8.4% | LDL [1]: 85.6 ± 4.1 mg/dL | Lactate Dehydrogenase [1]: 166.3 ± 11.1 IU/L | Phosphorus [1]: 3.4 ± 0.1 mg/dL | Potassium [1]: 4.6 ± 0.3 mEq/L | Protein [1]: 6.3 ± 0.2 g/dL | Sodium [1]: 138.3 ± 0.9 mEq/L | Total Bilirubin [1]: 0.5 ± 0.07 mg/dL | Total Cholesterol [1]: 153.3 ± 5.6 mg/dL | Triglycerides [1]: 87.5 ± 14.8 mg/dL | UIBC [1]: 237.1 ± 49.2 µg/dL | Uric Acid [1]: 4.9 ± 0.4 mg/dL | Gamma-glutamyl [1]: 13.5 ± 1.1 | A:G Ratio (Before): 1.9 ± 0.1 | Creatinine (Before): 1.0 ± 0.1 mg/dL | Direct Bilirubin (Before): 0.1 ± 0.01 mg/dL | Total Bilirubin (Before): 0.4 ± 0.05 mg/dL | A:G Ratio % Change [2]: 0.0% | Alanine Aminotransferase % Change [2]: −1.6% | Albumin % Change [2]: 1.9% | Alkaline Phosphatase % Change [2]: 0.8% | Aspartate Aminotransferase % Change [2]: −3.6% | Blood Urea Nitrogen % Change [2]: −6.5% | CO2 % Change [2]: 8.1% | Chloride % Change [2]: −0.4% | Cholesterol Ratio % Change [2]: −3.3% | Creatinine % Change [2]: −4.7% | Direct Bilirubin % Change [2]: 7.9% | Gamma-glutamyl % Change [2]: −6.1% | Globulin % Change [2]: 0.6% | Glucose % Change [2]: 3.9% | HDL % Change [2]: 3.5% | Iron % Change [2]: 12.6% | Iron Binding Capacity % Change [2]: 1.4% | Iron Saturation % Change [2]: 9.4% | LDL % Change [2]: −3.1% | Lactate Dehydrogenase % Change [2]: −1.5% | Phosphorus % Change [2]: −15.6% | Potassium % Change [2]: 11.4% | Protein % Change [2]: 1.4% | Sodium % Change [2]: −0.2% | Total Bilirubin % Change [2]: 23.3% | Total Cholesterol % Change [2]: −0.2% | Triglycerides % Change [2]: −4.1% | UIBC % Change [2]: −2.5% | Uric Acid % Change [2]: 0.8% | Alanine Aminotransferase [3]: 15.9 ± 1.5 IU/L | Albumin [3]: 4.0 ± 0.2 g/dL | Alkaline Phosphatase [3]: 63.9 ± 5.8 IU/L | Aspartate Aminotransferase [3]: 24.0 ± 2.2 IU/L | Blood Urea Nitrogen [3]: 15.4 ± 1.6 mg/dL | CO2 [3]: 22.4 ± 0.7 mEq/L | Chloride [3]: 103.6 ± 0.8 mEq/L | Cholesterol Ratio [3]: 3.4 ± 0.2 | Globulin [3]: 2.2 ± 0.1 g/dL | Glucose [3]: 70.5 ± 1.7 mg/dL | HDL [3]: 46.9 ± 3.4 mg/dL | Iron [3]: 85.5 ± 19.2 µg/dL | Iron Binding Capacity [3]: 328.6 ± 31.0 µg/dL | Iron Saturation [3]: 30.6 ± 9.4% | LDL [3]: 88.4 ± 3.0 mg/dL | Lactate Dehydrogenase [3]: 168.8 ± 10.4 IU/L | Phosphorus [3]: 4.0 ± 0.1 mg/dL | Potassium [3]: 4.2 ± 0.1 mEq/L | Protein [3]: 6.2 ± 0.2 g/dL | Sodium [3]: 138.5 ± 1.1 mEq/L | Total Cholesterol [3]: 153.5 ± 5.3 mg/dL | Triglycerides [3]: 91.3 ± 17.0 mg/dL | UIBC [3]: 243.1 ± 47.4 µg/dL | Uric Acid [3]: 4.9 ± 0.4 mg/dL | Gamma-glutamyl [3]: 14.4 ± 1.6
